Test results reported in paper PMC4496667, “Large-scale Direct Targeting for Drug Repositioning and Discovery” (Scientific Reports, 2015).
Several values for one entry are separate records, joined by “and”; a condition that tells them apart may be missing. Identical values can stand only once. Like-named read-outs stand apart in the source and are kept apart here. Blank lines part the entries; values can stand above or below the compound they belong to.

Key:
[1] = biological target: T1, Faah (Homo sapiens, UniProt O00519); assay: FAAH Inhibitor Screening Assay Kit (Faah); format: biochemical; conditions: target Faah; mean ± SD of three independent repeats, Bliss method, eight data points
T1 construct: purchased Cayman Chemical
T1 sequence (O00519 1-579): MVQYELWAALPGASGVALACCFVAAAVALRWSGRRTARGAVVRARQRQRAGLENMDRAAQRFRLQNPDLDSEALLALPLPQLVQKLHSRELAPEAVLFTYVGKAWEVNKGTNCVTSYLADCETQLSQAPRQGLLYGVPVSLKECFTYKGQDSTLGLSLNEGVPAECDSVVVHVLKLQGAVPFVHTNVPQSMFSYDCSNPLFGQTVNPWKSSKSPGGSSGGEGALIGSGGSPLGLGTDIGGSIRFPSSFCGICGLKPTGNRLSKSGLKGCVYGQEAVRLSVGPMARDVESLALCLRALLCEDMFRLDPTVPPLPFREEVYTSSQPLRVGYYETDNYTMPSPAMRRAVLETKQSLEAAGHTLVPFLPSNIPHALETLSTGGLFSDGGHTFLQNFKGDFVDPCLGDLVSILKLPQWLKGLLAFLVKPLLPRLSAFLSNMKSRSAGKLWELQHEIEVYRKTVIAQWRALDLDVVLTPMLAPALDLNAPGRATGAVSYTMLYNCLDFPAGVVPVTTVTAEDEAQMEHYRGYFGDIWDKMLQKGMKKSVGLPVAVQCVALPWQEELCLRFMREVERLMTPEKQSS
Method: (§1) To validate the practicability of WES model, we randomly selected Enpp2, Faah, PTGS2, PPARG, and REN, the five inflammation-related targets, and predicted their direct ligand-target interactions. The 24 top-scoring (hybrid-WES) and commercially available drug-target interactions (Table 3) were tested by the ligand-binding assays.
(§2) Enpp2 (Autotaxin Inhibitor Screening Assay Kit), Faah (FAAH Inhibitor Screening Assay Kit), PTGS2 (COX Inhibitor Screening Assay Kit), PPARG (PPARγ Ligand Screening Assay Kit), and REN (Renin Inhibitor Screening Assay Kit) were purchased from Cayman Chemical, Ann Arbor, MI, USA. […] The activity of targets was detected according to manufacturer’s instructions. IC50 values were determined using the Bliss method according to the eight data points per drug. The same drug-target interaction was repeated independently three times to obtain a mean IC50 value and its standard deviation.

[2] = biological target: T2, REN (Homo sapiens, UniProt P00797); assay: Renin Inhibitor Screening Assay Kit (REN); format: biochemical; conditions: target REN; mean ± SD of three independent repeats, Bliss method, eight data points
T2 construct: purchased Cayman Chemical
T2 sequence (P00797 67-406): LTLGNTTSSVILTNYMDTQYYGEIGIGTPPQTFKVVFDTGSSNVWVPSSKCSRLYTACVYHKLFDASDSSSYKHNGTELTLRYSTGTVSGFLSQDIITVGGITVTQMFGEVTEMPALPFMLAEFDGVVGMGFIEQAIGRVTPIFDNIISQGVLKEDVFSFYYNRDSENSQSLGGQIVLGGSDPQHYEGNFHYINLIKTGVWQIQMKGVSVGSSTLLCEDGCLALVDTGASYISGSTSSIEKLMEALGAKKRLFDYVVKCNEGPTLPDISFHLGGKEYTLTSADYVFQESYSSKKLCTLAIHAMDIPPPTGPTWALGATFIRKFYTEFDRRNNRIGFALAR
Method: as §1, §2

[3] = biological target: T3, PPARG (Homo sapiens, UniProt P37231); assay: PPARγ Ligand Screening Assay Kit (PPARG); format: binding; conditions: target PPARG; mean ± SD of three independent repeats, Bliss method, eight data points
T3 sequence (P37231 1-505): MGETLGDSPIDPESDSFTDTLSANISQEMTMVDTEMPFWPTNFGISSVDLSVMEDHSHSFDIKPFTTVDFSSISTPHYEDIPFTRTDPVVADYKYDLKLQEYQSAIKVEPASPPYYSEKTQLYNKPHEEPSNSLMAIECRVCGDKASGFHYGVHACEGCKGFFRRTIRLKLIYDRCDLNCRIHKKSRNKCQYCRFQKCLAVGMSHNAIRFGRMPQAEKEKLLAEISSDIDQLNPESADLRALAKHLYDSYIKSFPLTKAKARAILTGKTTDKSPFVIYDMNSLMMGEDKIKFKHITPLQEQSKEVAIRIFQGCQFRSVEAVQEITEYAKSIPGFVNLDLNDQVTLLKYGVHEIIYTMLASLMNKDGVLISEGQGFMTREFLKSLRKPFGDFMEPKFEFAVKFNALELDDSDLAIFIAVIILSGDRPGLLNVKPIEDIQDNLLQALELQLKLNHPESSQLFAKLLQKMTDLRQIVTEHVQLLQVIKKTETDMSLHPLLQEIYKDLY
Method: as §1, §2

[4] = biological target: T4, Enpp2 (Homo sapiens, UniProt Q13822); assay: Autotaxin Inhibitor Screening Assay Kit (Enpp2); format: biochemical
T4 construct: purchased Cayman Chemical
Method: as §1, §2

[5] = biological target: T5, PTGS2 (Homo sapiens, UniProt P35354); assay: COX Inhibitor Screening Assay Kit (PTGS2); format: biochemical; conditions: target PTGS2; mean ± SD of three independent repeats, Bliss method, eight data points
T5 construct: purchased Cayman Chemical
T5 sequence (P35354 18-604): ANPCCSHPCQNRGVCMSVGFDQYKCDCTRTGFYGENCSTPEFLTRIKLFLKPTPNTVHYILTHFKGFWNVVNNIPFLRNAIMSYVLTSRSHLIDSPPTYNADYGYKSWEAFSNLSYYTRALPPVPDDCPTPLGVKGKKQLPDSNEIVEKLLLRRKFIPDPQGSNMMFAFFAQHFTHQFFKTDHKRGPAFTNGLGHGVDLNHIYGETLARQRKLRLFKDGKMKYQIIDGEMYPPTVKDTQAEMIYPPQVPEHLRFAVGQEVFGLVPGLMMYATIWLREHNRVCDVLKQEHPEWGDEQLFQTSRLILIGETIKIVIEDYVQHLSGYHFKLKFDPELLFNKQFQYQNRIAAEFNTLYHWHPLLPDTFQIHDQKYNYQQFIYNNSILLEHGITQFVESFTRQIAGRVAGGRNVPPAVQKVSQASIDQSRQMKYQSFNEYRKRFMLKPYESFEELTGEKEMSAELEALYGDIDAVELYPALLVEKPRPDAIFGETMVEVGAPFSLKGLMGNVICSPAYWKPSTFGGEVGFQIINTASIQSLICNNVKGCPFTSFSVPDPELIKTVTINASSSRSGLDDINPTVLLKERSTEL
Method: as §1, §2

[6] = target Enpp2, mean ± SD of three independent repeats, Bliss method, eight data points, read-out: IC50 (μM):mean ± SD

Compound: CC/C=C\C/C=C\C/C=C\CCCCCCCC(=O)O [Alpha-linolenic acid]
IC50 [1]: 43.9 µM and 53.9 µM

IC50 [2]: 22 ± 6.4 µM
Compound: CC(C)C[C@H](NC(=O)[C@H](CCc1ccccc1)NC(=O)CN1CCOCC1)C(=O)N[C@@H](Cc1ccccc1)C(=O)N[C@@H](CC(C)C)C(=O)[C@@]1(C)CO1 [Carfilzomib]

IC50 [3]: 40.8 ± 6.5 µM
Compound: COC(=O)CCc1ccc(OCC(O)CNC(C)C)cc1 (stereo not drawn) [Esmolol]

IC50 [4, 6]: 115 ± 5.8 µM
Compound: CCCCCCCCc1ccc(CCC(N)(CO)CO)cc1 [Fingolimod]

IC50 [4, 6]: 218 ± 6.4 µM
Compound: CCN(CC)CC(=O)OCC(=O)[C@@]1(O)CC[C@H]2[C@@H]3CCC4=CC(=O)CC[C@]4(C)[C@H]3[C@@H](O)C[C@@]21C [Hydrocortamate]

IC50 [2]: 44.3 ± 12.1 µM
Compound: CC(C)(C)NC(=O)[C@@H]1CN(Cc2cccnc2)CCN1C[C@@H](O)C[C@@H](Cc1ccccc1)C(=O)N[C@H]1c2ccccc2C[C@H]1O [Indinavir]

IC50 [2]: 49.3 ± 10.3 µM
Compound: Cc1cccc(C)c1OCC(=O)N[C@@H](Cc1ccccc1)[C@@H](O)C[C@H](Cc1ccccc1)NC(=O)[C@H](C(C)C)N1CCCNC1=O [Lopinavir]

IC50 [5]: 123 ± 7.4 µM
Compound: C/C(=C\C(=O)OCCCCCCCCC(=O)O)C[C@@H]1OC[C@H](C[C@@H]2O[C@H]2[C@@H](C)[C@H](C)O)[C@@H](O)[C@H]1O [Mupirocin]

IC50 [5]: 199 ± 12.3 µM
Compound: CC[C@H](C)C(=O)O[C@H]1C[C@H](O)C=C2C=C[C@H](C)[C@H](CC[C@@H](O)C[C@@H](O)CC(=O)O)[C@H]21 [Pravastatin]

IC50 [5]: 138 ± 3.5 µM
Compound: Cc1c(C(=O)NN2CCCCC2)nn(-c2ccc(Cl)cc2Cl)c1-c1ccc(Cl)cc1 [Rimonabant]

IC50 [1]: 34.5 ± 1.5 µM
Compound: CC(=O)OCC(=O)NCCCOc1cccc(CN2CCCCC2)c1 [Roxatidine acetate]

IC50 [2]: 69.1 ± 4.2 µM
Compound: CC(C)(C)NC(=O)[C@@H]1C[C@@H]2CCCC[C@@H]2CN1C[C@@H](O)[C@H](Cc1ccccc1)NC(=O)[C@H](CC(N)=O)NC(=O)c1ccc2ccccc2n1 [Saquinavir]

IC50 [3]: 69 ± 17.5 µM
IC50 (μM):mean ± SD [3]: micromolar concentration range
Compound: CCCCC[C@H](O)CC[C@@H]1[C@H]2Cc3cccc(OCC(=O)O)c3C[C@H]2C[C@H]1O [Treprostinil]

Compound: CN[C@H](CC(C)C)C(=O)N[C@H]1C(=O)N[C@@H](CC(N)=O)C(=O)N[C@H]2C(=O)N[C@H]3C(=O)N[C@H](C(=O)N[C@H](C(=O)O)c4cc(O)cc(O)c4-c4cc3ccc4O)[C@H](O)c3ccc(c(Cl)c3)Oc3cc2cc(c3O[C@@H]2O[C@H](CO)[C@@H](O)[C@H](O)[C@H]2O[C@H]2C[C@](C)(N)[C@H](O)[C@H](C)O2)Oc2ccc(cc2Cl)[C@H]1O [Vancomycin]
IC50 [4]: 68.5 ± 7 µM

IC50 [2]: 156 ± 3.7 µM
Compound: Cetrorelix (AFASYRLRPA)

Compound: Felypressin (CFFQNCPKG)
IC50 [2]: 4.5 ± 7.1 µM

IC50 [4, 6]: 73.3 ± 9.7 µM
Compound: Pasireotide
